Type in all cases: cell-based
The target of assay [1] is T1, human muscarinic M1 receptor (Homo sapiens, UniProt P11229).
T1 sequence (P11229 1-460): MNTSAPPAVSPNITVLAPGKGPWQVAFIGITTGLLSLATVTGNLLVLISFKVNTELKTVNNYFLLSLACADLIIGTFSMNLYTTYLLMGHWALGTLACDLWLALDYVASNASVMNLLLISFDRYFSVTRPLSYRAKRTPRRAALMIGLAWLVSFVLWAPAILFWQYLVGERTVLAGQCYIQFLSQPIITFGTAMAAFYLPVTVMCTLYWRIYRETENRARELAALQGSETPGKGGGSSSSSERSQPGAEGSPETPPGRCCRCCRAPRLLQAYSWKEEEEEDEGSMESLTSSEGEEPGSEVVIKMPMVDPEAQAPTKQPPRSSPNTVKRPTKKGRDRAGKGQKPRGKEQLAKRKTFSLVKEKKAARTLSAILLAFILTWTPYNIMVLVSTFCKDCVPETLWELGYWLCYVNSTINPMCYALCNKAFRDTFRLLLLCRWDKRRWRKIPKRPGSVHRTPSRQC
Description: Alphascreen Surefire phospho-ERK1/2 functional assay, M1. The note with it: for % Emax cf. ACh, M1 / Emax: Emax compared with ACh; for EC50: read-out: pEC50 M1 (converted); for Emax: CHO, read-out: % Emax cf. ACh, M1, CHO cells stably expressing human M1. How it is done: (§1) ERK1/2 phosphorylation is a downstream consequence of both Gq/11 and Gi/o protein coupled receptor activation, making it highly suitable for the assessment of M1, M3 (Gq/11 coupled) and M2, M4 receptors (Gi/o coupled), rather than using different assay formats for different receptor subtypes. CHO cells stably expressing the human muscarinic M1, M2, M3 or M4 receptor were plated (25K/well) onto 96-well tissue culture plates in MEM-alpha+10% dialysed FBS. Once adhered, cells were serum-starved overnight. Agonist stimulation was performed by the addition of 5 μL agonist to the cells for 5 min (37° C.). Media was removed and 50 μL of lysis buffer added. After 15 min, a 4 μL sample was transferred to 384-well plate and 7 μL of detection mixture added. Plates were incubated for 2 h with gentle agitation in the dark and then read on a PHERAstar plate reader.
(§2) pEC50 and Emax figures were calculated from the resulting data for each receptor subtype.

In assay [2] the target is T2, human muscarinic M2 receptor (Homo sapiens, UniProt P08172).
T2 sequence (P08172 1-466): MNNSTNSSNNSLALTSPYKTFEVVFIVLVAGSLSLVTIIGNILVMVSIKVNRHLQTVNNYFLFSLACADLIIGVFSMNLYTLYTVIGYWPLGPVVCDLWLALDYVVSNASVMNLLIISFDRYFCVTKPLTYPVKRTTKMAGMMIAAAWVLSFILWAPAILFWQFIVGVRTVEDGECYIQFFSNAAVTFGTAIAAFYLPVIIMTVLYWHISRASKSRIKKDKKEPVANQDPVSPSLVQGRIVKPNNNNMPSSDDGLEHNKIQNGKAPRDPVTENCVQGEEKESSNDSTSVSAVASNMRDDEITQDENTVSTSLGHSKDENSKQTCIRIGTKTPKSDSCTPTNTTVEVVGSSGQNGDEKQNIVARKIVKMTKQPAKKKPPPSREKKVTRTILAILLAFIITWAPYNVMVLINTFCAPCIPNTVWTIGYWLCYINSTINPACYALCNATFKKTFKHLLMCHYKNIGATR
Put plainly: Alphascreen Surefire phospho-ERK1/2 functional assay, M2. The settings on record: for % Emax cf. ACh, M2 / EC50 / pEC50 M2: CHO cells stably expressing human M2; for % Emax cf. ACh, M2 / Emax: Emax compared with ACh; for EC50 / pEC50 M2: agonist 5 min, 37° C.; for EC50: read-out: pEC50 M2 (converted); for Emax: CHO, read-out: % Emax cf. ACh, M2, CHO cells stably expressing human M2. The method, then: as §1, §2

The target of assay [3] is T3, human muscarinic M3 receptor (Homo sapiens, UniProt P20309).
T3 construct: expressed in transfected cells
T3 sequence (P20309 whole entry): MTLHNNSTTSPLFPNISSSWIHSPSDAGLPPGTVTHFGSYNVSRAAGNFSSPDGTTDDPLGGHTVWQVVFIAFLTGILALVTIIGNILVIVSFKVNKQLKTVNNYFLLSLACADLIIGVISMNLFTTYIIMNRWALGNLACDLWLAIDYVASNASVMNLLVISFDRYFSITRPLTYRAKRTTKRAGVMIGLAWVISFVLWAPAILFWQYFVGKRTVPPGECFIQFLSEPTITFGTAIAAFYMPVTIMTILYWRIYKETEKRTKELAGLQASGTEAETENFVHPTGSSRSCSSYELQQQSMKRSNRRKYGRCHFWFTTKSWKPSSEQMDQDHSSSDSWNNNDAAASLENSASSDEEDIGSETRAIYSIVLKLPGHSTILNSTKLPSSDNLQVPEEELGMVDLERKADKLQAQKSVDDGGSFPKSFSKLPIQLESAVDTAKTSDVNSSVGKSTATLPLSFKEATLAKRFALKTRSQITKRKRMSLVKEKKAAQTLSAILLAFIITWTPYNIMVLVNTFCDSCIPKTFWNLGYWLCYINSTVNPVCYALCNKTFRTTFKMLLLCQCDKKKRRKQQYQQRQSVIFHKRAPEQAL
Put plainly: Alphascreen Surefire phospho-ERK1/2 functional assay, M3. The note with it: for % Emax cf. ACh, M3 / EC50 / pEC50 M3: CHO cells stably expressing human M3; for % Emax cf. ACh, M3 / Emax: Emax compared with ACh; for EC50 / pEC50 M3: agonist 5 min, 37° C.; for EC50: read-out: pEC50 M3 (converted); for Emax: CHO, read-out: % Emax cf. ACh, M3, CHO cells stably expressing human M3. The method, then: as §1, §2

Assay [4] has as its target T4, human muscarinic M4 receptor (Homo sapiens, UniProt P08173).
T4 construct: expressed in transfected cells
T4 sequence (P08173 1-479): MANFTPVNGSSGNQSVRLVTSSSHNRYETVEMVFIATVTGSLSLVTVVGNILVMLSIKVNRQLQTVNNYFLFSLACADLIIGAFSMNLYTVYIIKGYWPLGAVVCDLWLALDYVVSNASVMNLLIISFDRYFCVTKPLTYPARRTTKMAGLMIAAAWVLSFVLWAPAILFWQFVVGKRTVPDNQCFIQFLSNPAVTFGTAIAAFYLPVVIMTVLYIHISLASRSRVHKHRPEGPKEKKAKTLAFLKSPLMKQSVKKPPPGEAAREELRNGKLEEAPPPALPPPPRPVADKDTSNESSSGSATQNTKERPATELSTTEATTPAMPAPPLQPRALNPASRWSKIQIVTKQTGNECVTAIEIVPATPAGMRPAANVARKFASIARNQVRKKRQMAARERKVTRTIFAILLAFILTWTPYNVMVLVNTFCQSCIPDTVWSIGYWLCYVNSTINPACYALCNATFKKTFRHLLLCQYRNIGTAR
Put plainly: Alphascreen Surefire phospho-ERK1/2 functional assay, M4. The settings on record: for EC50 / % Emax cf. ACh, M4 / pEC50 M4: CHO cells stably expressing human M4; for EC50 / pEC50 M4: agonist 5 min, 37° C.; for EC50: read-out: pEC50 M4 (converted); for Emax: CHO, read-out: % Emax cf. ACh, M4, CHO cells stably expressing human M4; for Emax / % Emax cf. ACh, M4: Emax compared with ACh. The method, then: as §1, §2

Setting [5] is: CHO cells stably expressing human M1.
[6] abbreviates: CHO cells stably expressing human M1, agonist 5 min, 37° C.

`CCOC(=O)N1CCCC(N2CCC(C(CC)=NOC)CC2)CC1` (single isomer, unassigned) [1-2 Isomer 1 (racemic)]: the “% Emax cf. ACh, M1” value in assay [1] (setting [5]) is 58%. In addition, the EC50 in assay [1] (setting [6]) is 501 nM. Also, in assay [2], the “% Emax cf. ACh, M2” value was found to be 2% and the EC50 was above 20000 nM. Also, in assay [3], the “% Emax cf. ACh, M3” value amounted to 37% and the EC50 was above 20000 nM. Besides, in assay [4], the EC50 is 79.4 nM and the Emax is 99%.
`CCOC(=O)N1CCC[C@H](N2CCC(C(CC)=NOC)CC2)CC1` (single isomer, unassigned) [(S)-1-2 Isomer 2]: the “% Emax cf. ACh, M1” value in assay [1] (setting [5]) turned out to be 36%. In addition, in assay [1] (setting [6]), the EC50 is 501 nM. Also, in assay [2], the “% Emax cf. ACh, M2” value amounted to 5% and the “pEC50 M2” value is below 4.7. In addition, in assay [3], the “% Emax cf. ACh, M3” value was found to be 7% and the “pEC50 M3” value is below 4.7. For the same compound, in assay [4], the “% Emax cf. ACh, M4” value stood at 81% and the EC50 was 50.1 nM.
As to `CCOC(=O)N1CCCC(N2CCC(C(CC)=NOC(C)C)CC2)CC1` (single isomer, unassigned) [1-12 Isomer 2 (racemic)], the “% Emax cf. ACh, M1” value in assay [1] (setting [5]) was determined as 72%. For the same compound, the EC50 in assay [1] (setting [6]) is 316 nM. Moreover, in assay [2], the “% Emax cf. ACh, M2” value was 2% and the “pEC50 M2” value is reported as below 4.7. Further, in assay [3], the “% Emax cf. ACh, M3” value came to 1% and the “pEC50 M3” value is on record as below 4.7. In assay [4], the “% Emax cf. ACh, M4” value was determined as 101% and the EC50 was 25.1 nM.
On to `CCOC(=O)N1CCC[C@H](N2CCC(C(C)=NOC)CC2)CC1` (single isomer, unassigned) [(S)-1-1 Isomer 2], for which the “% Emax cf. ACh, M1” value in assay [1] (setting [5]) is on record as 49%. The EC50 in assay [1] (setting [6]) was 501 nM; in assay [2], above 20000 nM; in assay [3], above 20000 nM. For the same compound, the maximal response (Emax) amounted to 7% in assay [2] and 0% in assay [3]. The “% Emax cf. ACh, M4” value in assay [4] is 62%. The “pEC50 M4” value in assay [4] is listed as 6.7.
As for `CCOC(=O)N1CCCC(N2CCC(C(C#N)=NOC(C)C)CC2)CC1` (mixture of isomers) [4-1 Mixture of isomers], the EC50 in assay [1] (setting [6]) is 100 nM; in assay [2] it was above 20000 nM; in assay [3], above 20000 nM; in assay [4], 79.4 nM. For the same compound, the Emax in assay [1] was found to be 109%; in assay [2], 4%; in assay [3], 5%; in assay [4] it was 72%.
In the case of `CCOC(=O)N1CCC2(CC(N3CCC(C(C)=NOC)CC3)C2)C1` (single isomer, unassigned) [2-1 Mixture of isomers 2], the EC50 in assay [1] (setting [6]) is 200 nM; in assay [2], above 20000 nM; in assay [3] it was above 20000 nM; in assay [4] it was 63.1 nM. Moreover, the maximal effect (Emax) was 89% in assay [1], 71% in assay [2], 9% in assay [3] and 68% in assay [4].
Consider `CCOC(=O)N1CCCC(N2CCC(C(CCC(C)C)=NOC)CC2)CC1` (single isomer, unassigned) [1-6 Isomer 2 (racemic)], for which the EC50 in assay [1] (setting [6]) was 39.8 nM; in assay [2], above 20000 nM; in assay [3], above 20000 nM; in assay [4] it was 126 nM. Besides, the Emax in assay [1] is 96%; in assay [2] it was 10%; in assay [3], 16%; in assay [4], 65%.
`CCCC(=NOC)C1CCN(C2CC3(CCN(C(=O)OCC)C3)C2)CC1` (mixture of isomers) [2-3 Mixture of two isomers]: the EC50 is above 20000 nM in assay [1] (setting [6]), above 20000 nM in assay [2], above 20000 nM in assay [3] and 20 nM in assay [4]. For the same compound, the Emax in assay [1] amounted to 22%; in assay [2], 7%; in assay [3] it was 5%; in assay [4] it was 93%.
As for `CCOC(=O)N1CCCC(N2CCC(C(C)=NOC)CC2)CC1` (single isomer, unassigned) [1-1 Isomer 2 (racemic)], the EC50 was 1580 nM in assay [1] (setting [6]), above 20000 nM in assay [2], above 20000 nM in assay [3] and 126 nM in assay [4]. The Emax is 54% in assay [1], 4% in assay [2], 1% in assay [3] and 71% in assay [4].
On to `CCOC(=O)N1CCCC(N2CCC(C(=NOC)C(C)C)CC2)CC1` (single isomer, unassigned) [1-4 Isomer 2 (racemic)], for which the “% Emax cf. ACh, M1” value in assay [1] (setting [5]) is 95%. Besides, the EC50 in assay [1] (setting [6]) was 316 nM. For the same compound, in assay [2], the “% Emax cf. ACh, M2” value is 7% and the EC50 is above 15800 nM. For the same compound, in assay [3], the “% Emax cf. ACh, M3” value was found to be 6% and the EC50 is above 15800 nM. In addition, in assay [4], the “% Emax cf. ACh, M4” value is given as 107% and the EC50 was 31.6 nM.
In the case of `CCCC(=NOC)C1CCN([C@H]2CCCN(C(=O)OCC)CC2)CC1` (single isomer, unassigned) [(S)-1-3 Isomer 2], the EC50 in assay [1] (setting [6]) was 251 nM; in assay [2], above 20000 nM; in assay [3], above 20000 nM; in assay [4], 25.1 nM. Further, the Emax in assay [1] was 93%; in assay [2], 7%; in assay [3] it was 0%; in assay [4], 126%.
In the case of `CCOC(=O)N1CCCC(N2CCC(C(=NOC)C(C)C)CC2)CC1` (single isomer, unassigned) [1-5 Isomer 2 (racemic)], the “% Emax cf. ACh, M1” value in assay [1] (setting [5]) is recorded as 105%. The “pEC50 M1” value in assay [1] (setting [6]) is 6.5. In assay [2], the “% Emax cf. ACh, M2” value is 22% and the “pEC50 M2” value is below 4.7. In addition, in assay [3], the “% Emax cf. ACh, M3” value worked out at 4% and the “pEC50 M3” value is below 4.7. In assay [4], the “% Emax cf. ACh, M4” value stood at 104% and the “pEC50 M4” value is recorded as 7.5.
With `CCCC(=NOC)C1CCN(C2CC3(CCN(C(=O)OCC)C3)C2)CC1` (single isomer, unassigned) [2-3 Isomer 4], the EC50 in assay [1] (setting [6]) is 158 nM; in assay [2], above 20000 nM; in assay [3], above 20000 nM; in assay [4], 25.1 nM. In addition, the Emax is 87% in assay [1], 15% in assay [2], 7% in assay [3] and 77% in assay [4].
For `CCCON=C(CC)C1CCN(C2CCCN(C(=O)OCC)CC2)CC1` (single isomer, unassigned) [1-11 Isomer 2 (racemic)], the “% Emax cf. ACh, M1” value in assay [1] (setting [5]) worked out at 99%. The EC50 in assay [1] (setting [6]) was 158 nM; in assay [2], above 20000 nM; in assay [3], above 20000 nM; in assay [4], 63.1 nM. The Emax in assay [2] was 19%; in assay [3] it was 6%. Further, in assay [4], the “% Emax cf. ACh, M4” value stood at 97%.
